Key:
[1] = system: hFAP-HT1080 and WT-HT1080 xenografts; experiment: in vivo fluorescence imaging of xenograft-bearing mice; set-up: species or system nude mice
Description: Female athymic NMRI-nude mice (Rj:NMRI-Foxn1nu, Janvier Labs, France or Charles River, Germany) between 8 and 20 weeks of age were used. Subsequently, the prepared cells (1.0–2.0 × 10^6 hFAP/WT-HT1080 per animal) were subcutaneously injected into the right and left thigh, respectively. Xenograft tissue for real-time binding experiments was derived from animals injected with both target-positive and negative cells, however only showing growth of one tumor entity. When approaching endpoints, mice were anesthetized and euthanized. The tumor was quickly removed, frozen in − 45 °C 2-methylbutane and stored in sealed tubes at − 80 °C.
Optical imaging was performed using a multimodal IVIS-CT (Perkin Elmer, USA). Compounds were injected [0.09 mg/kg (n = 1)/0.33 mg/kg (n = 3) for NODAGA-FAP647; 0.17 mg/kg (n = 3) for NODAGA-FAP800, diluted in 150 µL of sterile 0.9% NaCl solution] into the lateral tail vein, either directly or via catheter. Fluorescence imaging started ~ 2 min post injection for 2–3 h, with 1 min, 3–5 min and 10 min intervals, along with a white-light image. Additional scans were performed after 24 h and, if applicable, later. The fluorescence of the respective fluorophore was captured (NODAGA-FAP647: λEx/Em = 640/680 nm, NODAGA-FAP800: λEx/Em = 745/800 nm). Emitted fluorescence intensity was analyzed (Perkin Elmer, Living Image 4.7.4) in raw data images.

[2] = target: T1, human recombinant dipeptidylpeptidase IV (Homo sapiens, UniProt P27487); experiment: fluorometric enzyme inhibition assay for DPPIV; format: biochemical
T1 construct: purchased Cayman Chemical
T1 sequence (P27487 whole entry): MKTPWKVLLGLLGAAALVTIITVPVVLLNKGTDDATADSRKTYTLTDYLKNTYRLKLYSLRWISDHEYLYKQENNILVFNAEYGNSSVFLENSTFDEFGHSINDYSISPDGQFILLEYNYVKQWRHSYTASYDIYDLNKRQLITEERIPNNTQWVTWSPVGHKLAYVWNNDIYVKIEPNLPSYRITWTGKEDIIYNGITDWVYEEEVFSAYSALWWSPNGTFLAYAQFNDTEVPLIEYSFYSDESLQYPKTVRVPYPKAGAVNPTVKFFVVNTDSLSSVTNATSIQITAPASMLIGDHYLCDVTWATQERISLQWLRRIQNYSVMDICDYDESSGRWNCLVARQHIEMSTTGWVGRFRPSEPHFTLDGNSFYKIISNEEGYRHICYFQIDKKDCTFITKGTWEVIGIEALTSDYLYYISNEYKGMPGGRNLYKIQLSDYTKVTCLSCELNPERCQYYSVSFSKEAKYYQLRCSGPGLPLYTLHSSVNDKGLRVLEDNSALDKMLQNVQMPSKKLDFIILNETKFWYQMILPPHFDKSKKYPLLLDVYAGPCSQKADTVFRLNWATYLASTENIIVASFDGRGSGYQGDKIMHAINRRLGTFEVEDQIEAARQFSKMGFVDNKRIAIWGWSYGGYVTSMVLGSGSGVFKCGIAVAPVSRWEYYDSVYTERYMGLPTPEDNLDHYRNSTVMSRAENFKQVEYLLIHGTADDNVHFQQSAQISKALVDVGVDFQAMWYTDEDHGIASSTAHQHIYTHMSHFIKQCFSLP
Method: The affinity towards DPPIV was determined using a commercially available inhibitor screening assay kit (Cayman Chemical, USA). The assay was performed according to the manufacturer’s instructions, and the data was analyzed as described above.

[3] = target: T2, hFAP (vital hFAP-HT1080 cells) (Homo sapiens, UniProt Q12884); experiment: real-time binding (LigandTracer) to vital hFAP-HT1080 cells; settings: fluorescent vs radioactive detection
T2 construct: expressed in transfected cells; host or cells: HT1080 (human fibrosarcoma), lentiviral transduction
T2 sequence (Q12884 1-760): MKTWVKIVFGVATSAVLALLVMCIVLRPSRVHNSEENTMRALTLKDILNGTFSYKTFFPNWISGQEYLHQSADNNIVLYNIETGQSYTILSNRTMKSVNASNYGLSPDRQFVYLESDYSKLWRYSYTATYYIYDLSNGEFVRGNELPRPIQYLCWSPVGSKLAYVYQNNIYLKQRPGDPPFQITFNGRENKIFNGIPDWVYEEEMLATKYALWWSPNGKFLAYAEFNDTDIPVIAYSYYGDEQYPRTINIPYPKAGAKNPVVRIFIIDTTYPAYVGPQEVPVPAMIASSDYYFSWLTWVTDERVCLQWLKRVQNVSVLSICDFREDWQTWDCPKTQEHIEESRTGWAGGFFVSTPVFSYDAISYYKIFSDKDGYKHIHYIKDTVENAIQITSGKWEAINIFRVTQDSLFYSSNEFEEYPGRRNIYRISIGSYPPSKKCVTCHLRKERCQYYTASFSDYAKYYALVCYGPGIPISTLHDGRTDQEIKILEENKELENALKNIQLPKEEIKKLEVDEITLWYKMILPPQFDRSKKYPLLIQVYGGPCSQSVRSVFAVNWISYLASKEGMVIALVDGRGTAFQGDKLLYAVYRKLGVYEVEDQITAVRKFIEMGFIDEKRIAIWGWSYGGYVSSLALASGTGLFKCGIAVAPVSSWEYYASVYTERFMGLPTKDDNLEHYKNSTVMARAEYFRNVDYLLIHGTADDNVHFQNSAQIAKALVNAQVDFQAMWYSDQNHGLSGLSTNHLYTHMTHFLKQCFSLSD
Method: To determine binding kinetics (association rate constant ka, dissociation rate constant kd, and thermodynamic dissociation constant KD), real-time assay systems (LigandTracer Yellow/White for radioactivity and Green with Red/NIR + and NIR + + /IR detectors for fluorescence; Ridgeview Instruments AB, Sweden) were utilized. In a 100 mm petri dish, cells or tissue sections in medium (3–4 mL total volume), are located on one side, while the radioactive or fluorescent signal is detected on the opposite, elevated side. Rotation on an inclined base in set intervals (30 s) allows continuous measurement of signal in the target (cells/tissue) against background area (no cells/tissue). Experiments were performed at room temperature, using CO2-independent medium, usually with 0.5–1% w/v bovine serum albumin, (#1ETA, Carl Roth, Germany). Association was determined through incubation with two distinct concentrations (between 1–5 and 4.5–10 nM, 60 min each, additive) for each compound. For that purpose, the same ligand preparation was typically employed for radioactive and fluorescent detection. This was followed by replacement with fresh medium and observation of dissociation for at least 2 h. Additionally, the dissociation rate constant was further investigated beyond 6 h, either using fluorescent detection or via gallium-67 (t1/2: 78.3 h). This approach provides reliable kinetic measurements in a 1:1 interaction setting, as previously shown (Onell and Andersson [2005]).
Binding data was evaluated using TraceDrawer (1.9.2, Ridgeview Instruments AB, Sweden). Traces were imported, potential spikes (> 100% sudden signal increases over previous datapoints) removed and each trace was normalized to its own baseline (= 0%) and highest value (= 100%, typically at the end of the second association phase). This allows comparing data across experiments and ultimately global fitting, without differences, e.g. of molar activity, affecting it. Typically, at least 3 individual traces per ligand, substrate and modality were recorded. Data was fitted in TraceDrawer using a 1:1 interaction model, with/without accounting for bulk effect. A 1:1 interaction is the simplest model, as it describes the binding of a ligand at a constant concentration to the target, with each one molecule of ligand binding to one molecule of target.

[4] = target: T3, hFAPα, recombinant protein (Homo sapiens, UniProt Q12884); experiment: fluorometric enzyme inhibition assay for FAP; format: biochemical; settings: Morrison equation for tight binding inhibitors; substrate Ala-Pro-AMC; mean ± SD
T3 construct: purchased
T3 sequence (Q12884 1-760): T2 sequence (Q12884 1-760)
Method: Affinity towards FAP was tested using a commercially available fluorometric assay. At the day of the experiment, all tested compounds were diluted in assay buffer (DPP assay buffer, BPS Bioscience, San Diego, CA, USA,) in a 1:1 dilution series, resulting in eleven concentrations, ranging from 2000 nM to 1.950 nM, equal to 200 nM to 0.195 nM per well. The substrate Ala-Pro-AMC (BPS Bioscience, concentration per well: 5 μM, Km = 244 μM (Edosada et al. [2006])) was pipetted along with the inhibitor into a 96-well plate. Subsequently, the enzyme (hFAPα, recombinant protein) was dissolved in assay buffer and added to the wells. The final concentration of DMSO per well was 0.2%. The 96-well plate was immediately loaded into a multimode plate reader (Biotek Cytation 5, Agilent, Santa Clara, CA, USA). The fluorescence intensity for each well was measured over a time course of 30 min with measurement intervals of 15 s, an excitation wavelength of 360 ± 20 nm and an emission wavelength of 450 ± 20 nm. Data (relative fluorescence units, RFU) over the total measurement time was analyzed by linear regression. The slope of the resulting graphs was analyzed over the inhibitor concentration. The enzyme inhibition constant Ki was calculated using the Morrison equation for tight binding inhibitors (Williams and Morrison [1979]). […]

[5] = target: T4, hFAP (hFAP-HT1080 xenograft tissue sections) (Homo sapiens, UniProt Q12884); experiment: real-time binding to frozen hFAP-HT1080 xenograft tissue sections; settings: ^67Ga-labeled
T4 construct: expressed in transfected cells; host or cells: HT1080 (human fibrosarcoma), lentiviral transduction
T4 sequence (Q12884 1-760): T2 sequence (Q12884 1-760)
Method: HT1080 cells were chosen as cellular and xenograft models, due to their similarity to FAP expressing fibroblasts and its origin (fibrosarcoma). For that purpose, HT1080 wild-type cells (WT-HT1080; European Collection of Authenticated Cell Cultures, ECACC, United Kingdom) were used as control. Cells were cultured in DMEM with GlutaMax (#31966021, Gibco), supplemented with 10% v/v fetal bovine serum (#S0615 Sigma Aldrich, Germany), 1% penicillin/streptomycin (#15140–122, Gibco, USA), 1% Non-essential amino acids under normoxic (5% CO2; 37 °C) conditions. Upon reaching ~ 90% confluency, cells were passaged. Typically, cultures were discarded after ~ 20 passages. […] Prior to in vitro experiments, cells were washed, trypsinized (0.05% Trypsin–EDTA, Gibco, USA), taken up in medium and an aliquot was counted using a CASY1 cell counter (Model TT, Schaerfe System, Reutlingen, Germany). […]
To determine binding kinetics (association rate constant ka, dissociation rate constant kd, and thermodynamic dissociation constant KD), real-time assay systems (LigandTracer Yellow/White for radioactivity and Green with Red/NIR + and NIR + + /IR detectors for fluorescence; Ridgeview Instruments AB, Sweden) were utilized. In a 100 mm petri dish, cells or tissue sections in medium (3–4 mL total volume), are located on one side, while the radioactive or fluorescent signal is detected on the opposite, elevated side. […]

[6] = stability in human serum; format: in vitro ADME; settings: 37 °C; for degradation in human serum: four-hour time point; for fraction of intact tracer: human serum, after 24 h
Method: Stability testing in human serum (Sigma Aldrich, Darmstadt, Germany) was carried out by incubation of the ^67Ga-labeled radiotracer at 37 °C. After defined time points an aliquot was withdrawn and the serum proteins precipitated, by dilution with “supersol” (20% v/v ethanol, 5% v/v 5 mM EDTA, 0.5% v/v Triton X-100, 0.1% m/v saponin in aqueous solution). After centrifugation, the supernatant was analyzed by radio-HPLC.

CN(CCCN1CCN(C(=O)[C@H](CCCCNC(=O)CC[C@H](C(=O)O)N2CCN(CC(=O)O)CCN(CC(=O)O)CC2)NC(=O)CCOCCOCCOCCOCCNC(=O)CCCCCN2/C(=C/C=C3\CCCC(/C=C/C4=[N+](CCCCS(=O)(=O)[O-])c5ccc(S(=O)(=O)O)cc5C4(C)C)=C3Oc3ccc(S(=O)(=O)O)cc3)C(C)(C)c3cc(S(=O)(=O)O)ccc32)CC1)c1ccc2nccc(C(=O)NCC(=O)N3CC(F)(F)C[C@H]3C#N)c2c1 [NODAGA-FAP800]
ratio hFAP-HT1080/muscle fluorescence ([1]; 120 min post injection): ~ 1.9
ratio hFAP/WT-HT1080 tumor fluorescence ([1]; 120 min post injection): ~ 2.2
fluorescence in hFAP-HT1080 tumor higher than in WT-HT1080 tumor or muscle ([1]; 24 h post injection): 60%
reduction of fluorescence signal in hFAP-HT1080 tumor ([1]; after 24 h post injection): 43%
WT-HT1080 to muscle ratio ([1]; over the imaging period): ~ 1
time to plateau of fluorescence in hFAP-HT1080 tumor ([1]; post injection): ~ 20 min
IC50 [2]: > 10 µM
faster association with fluorescent compared to radioactive detection [3]: ~ 50%
faster dissociation with fluorescent compared to radioactive detection [3]: ~ 30%
Ki [4]: 0.343 ± 0.153 nM

CN(CCCN1CCN(C(=O)[C@H](CCCCNC(=O)CC[C@H](C(=O)[O-])N2CCN(CC(=O)[O-])CCN(CC(=O)[O-])CC2)NC(=O)CCOCCOCCOCCOCCNC(=O)CCCCC[N+]2=C(C=CC=CC=C3N(CCCS(=O)(=O)O)c4ccc(S(=O)(=O)O)cc4C3(C)C)C(C)(CCCS(=O)(=O)O)c3cc(S(=O)(=O)[O-])ccc32)CC1)c1ccc2nccc(C(=O)NCC(=O)N3CC(F)(F)C[C@H]3C#N)c2c1.[67Ga+3] (stereo partly shown) [[^67Ga]Ga-NODAGA-FAP647]
Kd [5]: 0.025 nM
degradation in human serum [6]: no degradation
fraction of intact tracer [6]: 56%

CN(CCCN1CCN(C(=O)[C@H](CCCCNC(=O)CC[C@H](C(=O)[O-])N2CCN(CC(=O)[O-])CCN(CC(=O)[O-])CC2)NC(=O)CCOCCOCCOCCOCCNC(=O)CCCCCN2C(=CC=C3CCCC(C=CC4=[N+](CCCCS(=O)(=O)[O-])c5ccc(S(=O)(=O)O)cc5C4(C)C)=C3Oc3ccc(S(=O)(=O)O)cc3)C(C)(C)c3cc(S(=O)(=O)O)ccc32)CC1)c1ccc2nccc(C(=O)NCC(=O)N3CC(F)(F)C[C@H]3C#N)c2c1.[67Ga+3] [[^67Ga]Ga-NODAGA-FAP800]
Kd [5]: 0.018 nM
degradation in human serum [6]: no degradation
fraction of intact tracer [6]: 22%
